Measured values from patent US9995734B2, “Human T cell line assay for evaluating the immunologic identity of glatiramer acetate preparations” (Mylan Inc., priority 2013, dated 2018).
Values joined by “and” are separate entries in the source; they are usually repeats but may differ in a detail not shown here. Equal values may be shown once.

Assays:
Donor 3 COP T-Cell Lines = assay: ATP proliferation assay (CellTiter Glo), Donor 3 COP T-cell lines, incl. reactivity to non-canonical GA peptides; assay type: cell-based, human; settings: for Non-Canonical Peptide Reactivity: at least one proliferation value >=2 times no antigen control
Donor 3 GMA T-Cell Lines = assay: ATP proliferation assay (CellTiter Glo), Donor 3 GMA T-cell lines, incl. reactivity to non-canonical GA peptides; assay type: cell-based, human; settings: for Non-Canonical Peptide Non-Reactivity: proliferation <2 times no antigen control; for Non-Canonical Peptide Reactivity: at least one proliferation value >=2 times no antigen control

With poly (Lys-Tyr; 1:1) [LT 11] the “Non-Canonical Peptide Reactivity” value (Donor 3 COP T-Cell Lines; 165-C4C) was “LT 11”, the “Non-Canonical Peptide Reactivity” value (Donor 3 COP T-Cell Lines; 165-C7C) was “LT 11” and the “proliferation response to non-canonical GA peptides” value (Donor 3 COP T-Cell Lines; 165-F3C (Day 77) and 165-C4C (Day 66), 0, 1, 3, 10 μg/mL) was “responded well”. For the same substance, the “Non-Canonical Peptide Reactivity” value (Donor 3 COP T-Cell Lines; 165-F3C) was “LT 11”, the “Non-Canonical Peptide Non-Reactivity” value (Donor 3 COP T-Cell Lines; 165-F6C, proliferation <2 times no antigen control) was “LT 11” and the “Reactive T-Cell Line” value (Donor 3 COP T-Cell Lines; Donor 3 COP lines, at least a 50% increase in proliferation relative to a control after stimulation with the non-canonical GA peptide) was 165-C4C (Donor 3) and 165-C7C (Donor 3) and 165-F3C (Donor 3). The “Nonreactive T-Cell Line” value (Donor 3 COP T-Cell Lines; Donor 3 COP lines, stimulation with the non-canonical GA peptide) was 165-F6C (Donor 3), the “Proliferation (luminescent ATP assay), Mean” value (shortened to “Proliferation … Mean”) (Donor 3 COP T-Cell Lines; T-cell line 165-C4C, 1 μg/mL antigen, Day 66 of culture, 0 μg/mL 1881) was 2430 and the “Proliferation … Mean” value (Donor 3 COP T-Cell Lines; T-cell line 165-C4C, 3 μg/mL antigen, Day 66 of culture, 0 μg/mL 1881) was 2701. For the same substance, the “Proliferation … Mean” value (Donor 3 COP T-Cell Lines; T-cell line 165-C4C, 10 μg/mL antigen, Day 66 of culture, 0 μg/mL 1881) was 4129, the “Proliferation … Mean” value (Donor 3 COP T-Cell Lines; T-cell line 165-C7C, 1.25 μg/mL antigen, autologous B-LCL) was 418 RLU and the “Proliferation … Mean” value (Donor 3 COP T-Cell Lines; T-cell line 165-C7C, 2.5 μg/mL antigen, autologous B-LCL) was 305 RLU. For the same substance, the “Proliferation … Mean” value (Donor 3 COP T-Cell Lines; T-cell line 165-C7C, 5 μg/mL antigen, autologous B-LCL) was 244 RLU, the “Proliferation … Mean” value (Donor 3 COP T-Cell Lines; T-cell line 165-C7C, 10 μg/mL antigen, autologous B-LCL) was 119 RLU and the “Proliferation … Mean” value (Donor 3 COP T-Cell Lines; T-cell line 165-F3C, 1 μg/mL antigen, Day 77 of culture, 0 μg/mL 1563) was 2144. The “Proliferation … Mean” value (Donor 3 COP T-Cell Lines; T-cell line 165-F3C, 3 μg/mL antigen, Day 77 of culture, 0 μg/mL 1563) was 2605, the “Proliferation … Mean” value (Donor 3 COP T-Cell Lines; T-cell line 165-F3C, 10 μg/mL antigen, Day 77 of culture, 0 μg/mL 1563) was 3608 and the “Proliferation … Mean” value (Donor 3 COP T-Cell Lines; T-cell line 165-F6C, 1.25 μg/mL antigen, Day 76 of culture, No Antigen value 517) was 431. For the same substance, the “Proliferation … Mean” value (Donor 3 COP T-Cell Lines; T-cell line 165-F6C, 2.5 μg/mL antigen, Day 76 of culture, No Antigen value 517) was 518, the “Proliferation … Mean” value (Donor 3 COP T-Cell Lines; T-cell line 165-F6C, 5 μg/mL antigen, Day 76 of culture, No Antigen value 517) was 490 and the “Proliferation … Mean” value (Donor 3 COP T-Cell Lines; T-cell line 165-F6C, 10 μg/mL antigen, Day 76 of culture, No Antigen value 517) was 736. The “proliferation response to non-canonical GA peptides” value (Donor 3 GMA T-Cell Lines; 165-05G (so in the source), minimum 55 days in culture, 0, 1, 3, 10 μg/mL) was “responded”, the “Non-Canonical Peptide Non-Reactivity” value (Donor 3 GMA T-Cell Lines; 165-B5G) was “LT 11” and the “Non-Canonical Peptide Reactivity” value (Donor 3 GMA T-Cell Lines; 165-C5G) was “LT 11”. The “Non-Canonical Peptide Non-Reactivity” value (Donor 3 GMA T-Cell Lines; 165-E7G) was “LT 11”, the “Non-Canonical Peptide Non-Reactivity” value (Donor 3 GMA T-Cell Lines; 165-E9G) was “LT 11” and the “Non-Canonical Peptide Non-Reactivity” value (Donor 3 GMA T-Cell Lines; 165-F5G) was “LT 11”. The “Non-Canonical Peptide Reactivity” value (Donor 3 GMA T-Cell Lines; 165-F10G) was “LT 11”, the “Non-Canonical Peptide Non-Reactivity” value (Donor 3 GMA T-Cell Lines; 165-H11G) was “LT 11” and the “Reactive T-Cell Line” value (Donor 3 GMA T-Cell Lines; Donor 3 GMA lines, at least a 50% increase in proliferation relative to a control after stimulation with the non-canonical GA peptide) was 165-C5G (Donor 3) and 165-F10G (Donor 3). For the same substance, the “Nonreactive T-Cell Line” value (Donor 3 GMA T-Cell Lines; Donor 3 GMA lines, stimulation with the non-canonical GA peptide) was 165-B5G (Donor 3) and 165-F5G (Donor 3) and 165-E7G (Donor 3) and 165-E9G (Donor 3) and 165-H11G (Donor 3), the “Proliferation … Mean” value (Donor 3 GMA T-Cell Lines; T-cell line 165-B5G, 1.25 μg/mL antigen, Day 55 of culturing, No Antigen Value 846) was 1497 RLU and the “Proliferation … Mean” value (Donor 3 GMA T-Cell Lines; T-cell line 165-B5G, 2.5 μg/mL antigen, Day 55 of culturing, No Antigen Value 846) was 1724 RLU. The “Proliferation … Mean” value (Donor 3 GMA T-Cell Lines; T-cell line 165-B5G, 5 μg/mL antigen, Day 55 of culturing, No Antigen Value 846) was 1666 RLU, the “Proliferation … Mean” value (Donor 3 GMA T-Cell Lines; T-cell line 165-B5G, 10 μg/mL antigen, Day 55 of culturing, No Antigen Value 846) was 2705 RLU and the “Proliferation … Mean” value (Donor 3 GMA T-Cell Lines; T-cell line 165-C5G, 1.25 μg/mL antigen, autologous B-LCL) was 527 RLU. The “Proliferation … Mean” value (Donor 3 GMA T-Cell Lines; T-cell line 165-C5G, 2.5 μg/mL antigen, autologous B-LCL) was 680 RLU, the “Proliferation … Mean” value (Donor 3 GMA T-Cell Lines; T-cell line 165-C5G, 5 μg/mL antigen, autologous B-LCL) was 3010 RLU and the “Proliferation … Mean” value (Donor 3 GMA T-Cell Lines; T-cell line 165-C5G, 10 μg/mL antigen, autologous B-LCL) was 34438 RLU. For the same substance, the “Proliferation … Mean” value (Donor 3 GMA T-Cell Lines; T-cell line 165-E7G, 1.25 μg/mL antigen, autologous B-LCL, Day 55) was 2785 RLU, the “Proliferation … Mean” value (Donor 3 GMA T-Cell Lines; T-cell line 165-E7G, 2.5 μg/mL antigen, autologous B-LCL, Day 55) was 5270 RLU and the “Proliferation … Mean” value (Donor 3 GMA T-Cell Lines; T-cell line 165-E7G, 5 μg/mL antigen, autologous B-LCL, Day 55) was 3559 RLU. For the same substance, the “Proliferation … Mean” value (Donor 3 GMA T-Cell Lines; T-cell line 165-E7G, 10 μg/mL antigen, autologous B-LCL, Day 55) was 1983 RLU, the “Proliferation … Mean” value (Donor 3 GMA T-Cell Lines; T-cell line 165-E9G, 1.25 μg/mL antigen, autologous B-LCL) was 132 RLU and the “Proliferation … Mean” value (Donor 3 GMA T-Cell Lines; T-cell line 165-E9G, 2.5 μg/mL antigen, autologous B-LCL) was 129 RLU. The “Proliferation … Mean” value (Donor 3 GMA T-Cell Lines; T-cell line 165-E9G, 5 μg/mL antigen, autologous B-LCL) was 89 RLU, the “Proliferation … Mean” value (Donor 3 GMA T-Cell Lines; T-cell line 165-E9G, 10 μg/mL antigen, autologous B-LCL) was 91 RLU and the “Proliferation … Mean” value (Donor 3 GMA T-Cell Lines; T-cell line 165-F5G, 1.25 μg/mL antigen, autologous B-LCL) was 126 RLU. The “Proliferation … Mean” value (Donor 3 GMA T-Cell Lines; T-cell line 165-F5G, 2.5 μg/mL antigen, autologous B-LCL) was 113 RLU, the “Proliferation … Mean” value (Donor 3 GMA T-Cell Lines; T-cell line 165-F5G, 5 μg/mL antigen, autologous B-LCL) was 136 RLU and the “Proliferation … Mean” value (Donor 3 GMA T-Cell Lines; T-cell line 165-F5G, 10 μg/mL antigen, autologous B-LCL) was 129 RLU. For the same substance, the “Proliferation … Mean” value (Donor 3 GMA T-Cell Lines; T-cell line 165-F10G, 1.25 μg/mL antigen, autologous B-LCL) was 1145 RLU, the “Proliferation … Mean” value (Donor 3 GMA T-Cell Lines; T-cell line 165-F10G, 2.5 μg/mL antigen, autologous B-LCL) was 1270 RLU and the “Proliferation … Mean” value (Donor 3 GMA T-Cell Lines; T-cell line 165-F10G, 5 μg/mL antigen, autologous B-LCL) was 1552 RLU. The “Proliferation … Mean” value (Donor 3 GMA T-Cell Lines; T-cell line 165-F10G, 10 μg/mL antigen, autologous B-LCL) was 8012 RLU, the “Proliferation … Mean” value (Donor 3 GMA T-Cell Lines; T-cell line 165-H11G, 1.25 μg/mL antigen, autologous B-LCL) was 15 RLU and the “Proliferation … Mean” value (Donor 3 GMA T-Cell Lines; T-cell line 165-H11G, 2.5 μg/mL antigen, autologous B-LCL) was 326 RLU. The “Proliferation … Mean” value (Donor 3 GMA T-Cell Lines; T-cell line 165-H11G, 5 μg/mL antigen, autologous B-LCL) was 357 RLU and the “Proliferation … Mean” value (Donor 3 GMA T-Cell Lines; T-cell line 165-H11G, 10 μg/mL antigen, autologous B-LCL) was 178 RLU.
